According to patent EP0172581B1, “Disaccharide derivatives” (DAIICHI SEIYAKU CO., LTD., priority 1984, dated 1986):
Read-outs that look alike come from different tables or passages of the source.

Key:
Japanese white rabbits = type: in vivo; conditions: for Number of Necrosed Animals/Number of Tested Animals: 100 µg LPS intravenously 20 hours later
Method: The local Shwartzman reaction test (Test I) is examined to determine the phenomenon of necrosis, at the site where a test compound was injected, induced by intravenous injection of lipopolysaccharide (hereinafter referred to as LPS) after 20 hours from intracutaneous injection of the test compound to test animals, preferably in rabbits.
The test on Shwartzman reaction specific to endotoxin was carried out as follows using Japanese white rabbits (female, weighing around 3 kg). That is, Japanese domestic white rabbits were intracutaneously injected with the test compound. Twenty hours later, 100 µg of LPS extracted from Salmonella minnesota R595, Re-mutant was intravenously injected to each rabbit. The Shwartzman reaction-induction activity was expressed in terms of number of animals that suffered from hemorrhagic necrosis at the site that had been prepared by intracutaneous injection of the test compound.

[1] = system: clotting enzyme of Tachypleus tridentatus (horseshoe crab) amoebocytes; assay: Test III - Limulus test (toxicolor test); type: biochemical; conditions: activity of 1 mg test compound converted to amount of LPS from E. coli 0111:B4
Excerpt: Also, the compounds of this invention are very useful as a standard reagent for determination of endotoxin in the samples to be tested, and their activity has been confirmed by the local Shwartzman reaction test (Test I in Test Example 3), the pyrogenicity test (Test II in Test Example 3), and the activation of clotting enzyme of Tachypleus tridentatus (horseshoe crab) amoebocytes, i.e., Limulus test (Test III in Test Example 3).
The pyrogenicity of the compounds of this invention was also determined by Limulus test (toxicolor test). That is, the test compound was dissolved in a pyrogen-free 0.1% (vol/vol) triethylamine aqueous solution to a concentration of 2 mg/mℓ and diluted with pyrogen-free distilled water to a concentration of 4 X 10⁻¹ mg/mℓ. Subsequently, dilute aqueous solutions having concentrations of from 4 X 10⁻¹ mg/mℓ to 4 × 10⁻¹⁰ mg/mℓ were prepared by serial 10-fold dilution. […] Thereafter, 0.5 mℓ of sodium nitrite was added to the culture, and after stirring 0.1 mℓ each of ammonium sulfamate and N-(1-naphthyl)-ethylenediamine were added thereto to develop a color, and absorbance at a wavelength of 545 nm was determined. […]

[2] = system: Japanese domestic white rabbits; assay: Test II - test on pyrogenicity (Japanese Pharmacopoeia); type: in vivo; conditions: for Number of Febrile Animals/Number of Tested Animals: 0.1 µg/kg intravenously, febrile = temperature increase of 0.6°C or more
Method: The pyrogenicity of the compounds of this invention was determined in terms of body temperature increase in rabbits after intravenous injection of the test compound in accordance with the test method of pyrogenicity defined in Japanese Pharmacopoeia. That is, the rectal temperatures of Japanese domestic white rabbits (body weight: 2 to 2.5 kg) were measured 3 times at one-hour intervals. When the temperature in the second and third measurements were substantially equal, the third temperature was taken as a reference temperature. Within 15 minutes after the third measurement, the test compound dissolved in pyrogen-free distilled water was injected in the ear vein, and the rectal temperature was measured 3 times at one-hour intervals after injection. A difference between the reference temperature and the maximum temperature was taken as an increase of body temperature, and the pyrogenicity of the test compound was expressed by the number of febrile animals showing a temperature increase of 0.6°C or more.

[3] = system: isolated murine lymphocytes (splenocytes); assay: Test on mitogenicity ([³H]-labeled thymidine uptake); type: cell-based, BALB/c nu/nu mice; conditions: T/C, 48 hours incubation
Method: Spleen of BALB/c nu/nu mice (male; 8-week old) was minced, and lymphocytes collected from the minced spleen were incubated with graded doses of test compounds in RPMI 1640 medium without fetal bovine serum at 37°C at a concentration of 1 x 10⁵ to 1 x 10⁶ lymphocytes per mℓ for 48 hours. Twenty-four hours before the completion of the incubation, [³H]-labeled thymidine (manufactured by New England Nuclear) was added to the culture. After the completion of the incubation, cells were collected on glass micro-fiber paper and dried, and the radioactivity of [³H]-labeled thymidine incorporated into the cells was measured. The ratio of thymidine uptake in the test culture to which the test compound had been added to that in the respective control culture was determined as a stimulation index. The higher the stimulation index, the higher the mitogenicity.

## CCCCCCCCCCCCCC(=O)O[C@H](CCCCCCCCCCC)CC(=O)O[C@@H]1[C@@H](NC(=O)C[C@@H](CCCCCCCCCCC)OC(=O)CCCCCCCCCCC)[C@H](OC[C@H]2O[C@H](OP(=O)(O)O)[C@H](NC(=O)C[C@H](O)CCCCCCCCCCC)[C@@H](OC(=O)C[C@H](O)CCCCCCCCCCC)[C@@H]2O)O[C@H](CO)[C@H]1OP(=O)(O)O [Compound of Present Invention, 6-O-{2-Deoxy-2-[(R)-3-dodecanoyloxytetradecanoylamino]-3-O-[(R)-3-tetradecanoyloxytetradecanoyl]-4-O-phosphono-β-D-glucopyranosyl}-2-deoxy-2-[(R)-3-hydroxytetradecanoylamino]-3-O-[(R)-3-hydroxytetradecanoyl]-1-O-phosphono-α-D-glucopyranose]
Japanese white rabbits; 20 µg/site intracutaneously
  Number of Necrosed Animals/Number of Tested Animals: 2/3
[1]
  Converted LPS Amount: 2.38 mg
[2]
  Number of Febrile Animals/Number of Tested Animals: 3/4
[3]; 0.01 µg/mℓ test compound added
  Stimulation Index ±S.E.: 4.06 ± 0.35
[3]; 0.1 µg/mℓ test compound added
  Stimulation Index ±S.E.: 9.05 ± 0.70
[3]; 1 µg/mℓ test compound added
  Stimulation Index ±S.E.: 11.76 ± 0.13

## CCCCCCCCCCC[C@@H](O)CC(=O)N[C@H]1[C@H](OC[C@H]2O[C@H](OP(=O)(O)O)[C@H](NC(=O)C[C@H](O)CCCCCCCCCCC)[C@@H](OC(=O)C[C@H](O)CCCCCCCCCCC)[C@@H]2O)O[C@H](CO)[C@@H](OP(=O)(O)O)[C@@H]1OC(=O)C[C@H](O)CCCCCCCCCCC [Control Compound 1, 6-O-{2-Deoxy-2-[(R)-3-hydroxytetradecanoylamino]-3-O-[(R)-3-hydroxytetradecanoyl]-4-O-phosphono-β-D-glucopyranosyl}-2-deoxy-2-[(R)-3-hydroxytetradecanoylamino]-3-O-[(R)-3-hydroxytetradecanoyl]-1-O-phosphono-α-D-glucopyranose]
Japanese white rabbits; 80 µg/site intracutaneously
  Number of Necrosed Animals/Number of Tested Animals: 0/3
Japanese white rabbits; summary in words
  reaction in Test I (local Shwartzman reaction): negative
[1]
  Converted LPS Amount: 1.34 mg
[2]
  Number of Febrile Animals/Number of Tested Animals: 0/3
[2]; summary in words
  reaction in Test II (pyrogenicity): negative
